{
  "source": "patent US20060140858A1",
  "about": "“Drug pre-targeting by means of bi-specific antibodies and hapten constructs comprising a carrier peptide and the active agent(s)” (Immunomedics, Inc., priority 2002, published 2006)",
  "key": {"[1]": {"type": "in vitro ADME, mouse", "excerpt": "The peptide was monitored as described above by HPLC."}, "GW-39 [2]": {"tested_on": "GW-39", "design": "species or system nude mice", "conditions": "mouse, in vivo", "experimental": "(§1) Female NCr nude mice Charles River Laboratories, Inc., Fredrick Md. or Taconic, Germantown, N.Y.) approximately 6 weeks of age were implanted subcutaneously with 0.2 ml of this suspension. Two to three weeks after implantation of tumors, animals were injected with the radiolabeled peptide alone, or for pretargeting, with the bsMAb followed 1 to 2 days later with the radiolabeled peptide. […] At the designated times after the peptide injection, animals were anesthetized, bled by cardiac puncture, and then euthanized prior to necropsy. Tissues were removed, weighed and counted by gamma scintillation using appropriate windows for each radionuclide along with standards prepared from the injected materials. When dual isotope counting was used, appropriate backscatter correction was made. GI tissues (stomach, small intestine and large intestine were weighed and counted with their contents. Data are expressed as the percent injected dose per gram tissue (% ID/g) and the ratio of the percentages in the tumor to the normal tissues (T/NT). All values presented in the tables and figures represent the mean and standard deviation of the calculated values with the number of animals used for each study provided therein."}, "GW-39 [3]": {"tested_on": "GW-39", "experiment": "Comparison of ^177Lu-IMP-241 and ^111In-IMP-241 pretargeting using hMN-14 × m679 F(ab′)2 bsMAb (24 h bsMAb clearance)", "type": "in vivo, nude mice", "conditions": "listed as 111In-IMP-241", "experimental": "as §1"}},
  "note": "*1 amine or outer side, *2 acyl side, *3 side chain or, on linkers, in order; H or OH if unused. Where a SMILES comes first, the peptide text is derived from it. Side-chain parts run from the residue outwards. [ ]: non-standard residue; d: D form. The star is where a group is joined. DOTA = O=C(O)CN1CCN(CC(=O)O)CCN(CC(=O)*)CCN(CC(=O)O)CC1; NH(2-(imidazol-4-yl)ethyl) = c1ncc(CCN*)[nH]1; Suc = O=C(CCC(=O)[*:2])[*:1]",
  "data": [
    {"molecule": "NC(=O)[C@H](CCCCNC(=O)CNC(=O)CCC(=O)NCCc1cnc[nH]1)NC(=O)[C@@H](Cc1ccc(O)cc1)NC(=O)[C@H](CCCCNC(=O)CNC(=O)CCC(=O)NCCc1cnc[nH]1)NC(=O)[C@H](Cc1ccccc1)NC(=O)CN1CCN(CC(=O)O)CCN(CC(=O)O)CCN(CC(=O)O)CC1", "note": "[IMP 241, DOTA-Phe-Lys(HSG)-D-Tys-Lys(HSG)-NH2] ({DOTA}-FK([Gly-Suc-NH(2-(imidazol-4-yl)ethyl)])[dY]K([Gly-Suc-NH(2-(imidazol-4-yl)ethyl)])-NH2)", "values": [
      {"measurement": "decomposed in mouse serum", "setting": "[1]", "result": "~5", "unit": "%"},
      {"measurement": "increase of tumor accretion by pretargeting compared to the peptide alone", "setting": "GW-39 [2]", "result": "~100", "unit": "fold"},
      {"measurement": "Percent Injected Dose Per Gram", "setting": "GW-39 [3]; Blood, 3 hour after peptide", "result": "1.87 ± 0.97", "unit": "% ID/g"},
      {"measurement": "Percent Injected Dose Per Gram", "setting": "GW-39 [3]; Kidney, 3 hour after peptide", "result": "3.00 ± 0.87", "unit": "% ID/g"},
      {"measurement": "Percent Injected Dose Per Gram", "setting": "GW-39 [3]; Liver, 3 hour after peptide", "result": "0.57 ± 0.24", "unit": "% ID/g"},
      {"measurement": "Percent Injected Dose Per Gram", "setting": "GW-39 [3]; Lungs, 3 hour after peptide", "result": "0.81 ± 0.33", "unit": "% ID/g"},
      {"measurement": "Percent Injected Dose Per Gram", "setting": "GW-39 [3]; Lungs, 24 hour after peptide", "result": "0.24 ± 0.07", "unit": "% ID/g"},
      {"measurement": "Percent Injected Dose Per Gram", "setting": "GW-39 [3]; Tumor, 3 hour after peptide", "result": "8.76 ± 2.31", "unit": "% ID/g"},
      {"measurement": "Percent Injected Dose Per Gram", "setting": "GW-39 [3]; Tumor, 24 hour after peptide", "result": "2.54 ± 1.04", "unit": "% ID/g"}
    ]}
  ]
}
